In PubChem BioAssay AID328 (DTP/NCI, 2004):
“And” between values parts separate entries of the source, which are not always exact repeats. Equal entries are not always repeated. Toxic doses and inconclusive results are not listed.

System: BDF1 mice, P388 leukemia ip, median survival T/C
Experiment: NCI In Vivo Anticancer Drug Screen. Data for tumor model P388 Leukemia (intraperitoneal) in B6D2F1 (BDF1) mice
Conditions: endpoint: median survival time, higher = longer survival
How it was run: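 Each value expresses how treatment altered survival: treated-mouse outcome over vehicle-mouse outcome, both groups bearing the transplanted tumour.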

[1] = dose: 100.0 mg/kg/injection, schedule: Q01DX001 (ip), vehicle: Klucel (hydroxypropylcellulose) (HPC)
[2] = dose: 200.0 mg/kg/injection, schedule: Q01DX001 (ip), vehicle: Klucel (hydroxypropylcellulose) (HPC)
[3] = dose: 400.0 mg/kg/injection, schedule: Q01DX001 (ip), vehicle: Klucel (hydroxypropylcellulose) (HPC)
[4] = dose: 50.0 mg/kg/injection, schedule: Q01DX009 (ip), vehicle: saline with Tween-80
[5] = dose: 100.0 mg/kg/injection, schedule: Q01DX009 (ip), vehicle: saline with Tween-80
[6] = dose: 200.0 mg/kg/injection, schedule: Q01DX009 (ip), vehicle: saline with Tween-80
[7] = dose: 25.0 mg/kg/injection, schedule: Q01DX009 (ip), vehicle: saline with Tween-80
[8] = dose: 100.0 mg/kg/injection, schedule: Q04DX003 (ip), vehicle: saline with Tween-80
[9] = dose: 200.0 mg/kg/injection, schedule: Q04DX003 (ip), vehicle: saline with Tween-80
[10] = dose: 400.0 mg/kg/injection, schedule: Q01DX009 (ip), vehicle: saline with Tween-80
[11] = dose: 400.0 mg/kg/injection, schedule: Q04DX003 (ip), vehicle: saline with Tween-80
[12] = dose: 200.0 mg/kg/injection, schedule: Q04DX002 (ip), vehicle: saline with Tween-80
[13] = dose: 50.0 mg/kg/injection, schedule: Q04DX003 (ip), vehicle: saline with Tween-80

O=C(Nc1cccc(Cl)c1)Oc1ccc2ccccc2c1
T/C [1]: 109 % of control
T/C [2]: 113 % of control
T/C [3]: 100 % of control

CCCNCc1c2c(O)c3c(O)c(C)c4c(c3c1O)C(=O)C(C)(O/C=C/C(OC)C(C)C(OC(C)=O)C(C)C(O)C(C)C(O)C(C)/C=C/C=C(/C)C(=O)N2)O4 (centres undefined)
T/C [4]: 90 % of control
T/C [5]: 100 % of control

C=CCN1c2ccccc2Sc2cnccc21
T/C [4]: 109 % of control
T/C [5]: 100 % of control and 104 % of control
T/C [6]: 100 % of control

O=[N+]([O-])c1ccc(S(=O)(=O)OCc2cccc(OS(=O)(=O)c3ccc([N+](=O)[O-])cc3)c2)cc1
T/C (dose: 100.0 mg/kg/injection, schedule: Q04DX003 (ip), vehicle: saline sonified): 105 % of control
T/C (dose: 200.0 mg/kg/injection, schedule: Q04DX003 (ip), vehicle: saline sonified): 116 % of control
T/C (dose: 400.0 mg/kg/injection, schedule: Q04DX003 (ip), vehicle: saline sonified): 105 % of control

CC(C)COC(=O)c1cc(O)c(O)c(O)c1
T/C [7]: 95 % of control
T/C [4]: 91 % of control
T/C [5]: 112 % of control
T/C [8]: 105 % of control
T/C [6]: 103 % of control
T/C [9]: 115 % of control
T/C [10]: 103 % of control
T/C [11]: 115 % of control

O=C(Nc1nncs1)c1ccncc1
T/C (dose: 50.0 mg/kg/injection, schedule: Q04DX002 (ip), vehicle: saline with Tween-80): 90 % of control
T/C [12]: 152 % of control
T/C (dose: 400.0 mg/kg/injection, schedule: Q04DX002 (ip), vehicle: saline with Tween-80): 100 % of control

O=C/C=C/Nc1ccccc1
T/C [5]: 122 % of control
T/C [6]: 109 % of control
T/C [10]: 90 % of control

CCCCN(CCO)C(C#CC(C)(C)O)C(C)C (centres undefined)
T/C (dose: 50.0 mg/kg/injection, schedule: Q01DX001 (ip), vehicle: saline sonified): 110 % of control
T/C (dose: 100.0 mg/kg/injection, schedule: Q01DX001 (ip), vehicle: saline sonified): 110 % of control
T/C (dose: 200.0 mg/kg/injection, schedule: Q01DX001 (ip), vehicle: saline sonified): 105 % of control

Cc1sc2c(c1-c1ccccc1)C(=O)CCCN2
T/C (dose: 25.0 mg/kg/injection, schedule: Q01DX005 (ip), vehicle: saline with Tween-80): 108 % of control
T/C (dose: 50.0 mg/kg/injection, schedule: Q01DX005 (ip), vehicle: saline with Tween-80): 101 % of control
T/C [13]: 107 % of control
T/C (dose: 100.0 mg/kg/injection, schedule: Q01DX005 (ip), vehicle: saline with Tween-80): 118 % of control
T/C [8]: 107 % of control
T/C (dose: 200.0 mg/kg/injection, schedule: Q01DX005 (ip), vehicle: saline with Tween-80): 118 % of control
T/C [9]: 105 % of control
T/C [11]: 105 % of control

CN[C@H]1CC[C@]23C[C@]24CC[C@]2(C)[C@@H]([C@H](C)N(C)C)CC[C@@]2(C)[C@@H]4CC[C@H]3C1(C)C
T/C (dose: 2.6 mg/kg/injection, schedule: Q01DX010 (ip), vehicle: saline): 90 % of control
T/C (dose: 4.0 mg/kg/injection, schedule: Q01DX010 (ip), vehicle: saline): 100 % of control
T/C (dose: 6.6 mg/kg/injection, schedule: Q01DX010 (ip), vehicle: saline): 118 % of control
T/C (dose: 8.8 mg/kg/injection, schedule: Q01DX010 (ip), vehicle: carboxymethylcellulose (CMC)): 100 % of control
T/C (dose: 10.0 mg/kg/injection, schedule: Q01DX010 (ip), vehicle: saline): 100 % of control
T/C (dose: 13.3 mg/kg/injection, schedule: Q01DX010 (ip), vehicle: carboxymethylcellulose (CMC)): 105 % of control
T/C (dose: 16.0 mg/kg/injection, schedule: Q01DX010 (ip), vehicle: saline): 113 % of control
T/C (dose: 20.0 mg/kg/injection, schedule: Q01DX010 (ip), vehicle: carboxymethylcellulose (CMC)): 115 % of control
T/C (dose: 26.0 mg/kg/injection, schedule: Q01DX010 (ip), vehicle: saline): 90 % of control
T/C (dose: 30.0 mg/kg/injection, schedule: Q01DX010 (ip), vehicle: carboxymethylcellulose (CMC)): 94 % of control
T/C (dose: 45.0 mg/kg/injection, schedule: Q01DX010 (ip), vehicle: carboxymethylcellulose (CMC)): 94 % of control

c1cc2n(n1)CCN2
T/C (dose: 50.0 mg/kg/injection, schedule: Q01DX009 (ip), vehicle: water): 105 % of control
T/C (dose: 80.0 mg/kg/injection, schedule: Q01DX009 (ip), vehicle: saline): 90 % of control
T/C (dose: 100.0 mg/kg/injection, schedule: Q01DX009 (ip), vehicle: water): 90 % of control
T/C [8]: 120 % of control
T/C (dose: 100.0 mg/kg/injection, schedule: Q04DX003 (ip), vehicle: water): 103 % of control
T/C (dose: 120.0 mg/kg/injection, schedule: Q01DX009 (ip), vehicle: saline): 107 % of control
T/C (dose: 180.0 mg/kg/injection, schedule: Q01DX009 (ip), vehicle: saline): 112 % of control
T/C (dose: 200.0 mg/kg/injection, schedule: Q01DX009 (ip), vehicle: water): 90 % of control
T/C (dose: 200.0 mg/kg/injection, schedule: Q04DX003 (ip), vehicle: water): 96 % of control
T/C (dose: 400.0 mg/kg/injection, schedule: Q04DX003 (ip), vehicle: water): 121 % of control

CCCNC(=O)OCc1c(COC(=O)NCCC)c(-c2ccc(Cl)c(Cl)c2)n2c1CCC2
T/C (dose: 25.0 mg/kg/injection, schedule: Q01DX009 (ip), vehicle: other): 151 % of control
T/C (dose: 50.0 mg/kg/injection, schedule: Q01DX009 (ip), vehicle: other): 172 % of control

COc1cc2ccc3c(c2cc1OC)N(C)C(OC)c1cc2c(cc1-3)OCO2 (centres undefined)
T/C (dose: 20.0 mg/kg/injection, schedule: Q01DX009 (ip), vehicle: water): 104 % of control
T/C (dose: 240.0 mg/kg/injection, schedule: Q01DX009 (ip), vehicle: water): 95 % of control

C#CCCCOC(=O)Nc1ccccc1
T/C (dose: 50.0 mg/kg/injection, schedule: Q01DX009 (ip), vehicle: Klucel (hydroxypropylcellulose) (HPC)): 90 % of control
T/C (dose: 100.0 mg/kg/injection, schedule: Q01DX009 (ip), vehicle: Klucel (hydroxypropylcellulose) (HPC)): 90 % of control

Cc1nc(N)c(N)nc1C
T/C (dose: 12.5 mg/kg/injection, schedule: Q01DX009 (ip), vehicle: saline with Tween-80): 95 % of control
T/C [7]: 88 % of control
T/C (dose: 25.0 mg/kg/injection, schedule: Q04DX003 (ip), vehicle: saline with Tween-80): 102 % of control
T/C [4]: 107 % of control
T/C [13]: 101 % of control

CC(=O)CC(=O)Nc1ccccn1
T/C [7]: 95 % of control
T/C [4]: 92 % of control
T/C [5]: 98 % of control
T/C [6]: 104 % of control

Brc1ccc(C[n+]2ccccc2)cc1
T/C (dose: 6.25 mg/kg/injection, schedule: Q01DX009 (ip), vehicle: saline): 91 % of control
T/C (dose: 12.5 mg/kg/injection, schedule: Q01DX009 (ip), vehicle: saline): 87 % of control
T/C (dose: 25.0 mg/kg/injection, schedule: Q01DX009 (ip), vehicle: saline): 95 % of control
T/C (dose: 25.0 mg/kg/injection, schedule: Q04DX003 (ip), vehicle: saline): 100 % of control

COC(=O)[C@]1(C)CCC[C@]2(C)c3ccc(C(C)C)cc3CC[C@@H]12
T/C (dose: 0.5 mg/kg/injection, schedule: Q01DX009 (ip), vehicle: Klucel (hydroxypropylcellulose) (HPC)): 100 % of control
T/C (dose: 0.5 mg/kg/injection, schedule: Q04DX003 (ip), vehicle: Klucel (hydroxypropylcellulose) (HPC)): 100 % of control
T/C (dose: 1.0 mg/kg/injection, schedule: Q01DX009 (ip), vehicle: Klucel (hydroxypropylcellulose) (HPC)): 103 % of control
T/C (dose: 1.0 mg/kg/injection, schedule: Q04DX003 (ip), vehicle: Klucel (hydroxypropylcellulose) (HPC)): 100 % of control
T/C (dose: 2.0 mg/kg/injection, schedule: Q01DX009 (ip), vehicle: Klucel (hydroxypropylcellulose) (HPC)): 92 % of control
T/C (dose: 2.0 mg/kg/injection, schedule: Q04DX003 (ip), vehicle: Klucel (hydroxypropylcellulose) (HPC)): 104 % of control

CC(Cc1ccc2c(c1)OCO2)C(C)Cc1ccc2c(c1)OCO2 (centres undefined)
T/C [1]: 100 % of control
T/C [2]: 100 % of control
T/C [3]: 100 % of control

C(CCC1CO1)CC1CO1 (centres undefined)
T/C (dose: 50.0 mg/kg/injection, schedule: Q04DX005 (ip), vehicle: saline with Tween-80): 115 % of control
T/C [12]: 173 % of control

CC1([CH2][Hg][I])CS(=O)(=O)CC(C)([CH2][Hg][I])O1 (centres undefined)
T/C (dose: 5.0 mg/kg/injection, schedule: Q01DX010 (ip), vehicle: carboxymethylcellulose (CMC)): 104 % of control
T/C (dose: 10.0 mg/kg/injection, schedule: Q01DX010 (ip), vehicle: carboxymethylcellulose (CMC)): 109 % of control
